# From patent publication US5571942A, “Ring-substituted 2-amino-1,2,3,4-tetrahydronaphthalenes and 3-aminochromanes” (Eli Lilly and Company, priority 1995, dated 1996)
# What was measured:
# Parameters in all cases: species or system rat (male Sprague-Dawley)
# 5-HT1A receptors [1] = biological target: T1, 5-HT1A receptors (Rattus norvegicus, UniProt P19327); assay: in vivo lowering of brain 5-HIAA levels (5-HT1A agonist activity); conditions: one hour after treatment
# T1 construct: from tissue; host or cells: cerebral cortex (crude synaptosomal membranes) of male Sprague-Dawley rats
# T1 sequence (P19327 1-422): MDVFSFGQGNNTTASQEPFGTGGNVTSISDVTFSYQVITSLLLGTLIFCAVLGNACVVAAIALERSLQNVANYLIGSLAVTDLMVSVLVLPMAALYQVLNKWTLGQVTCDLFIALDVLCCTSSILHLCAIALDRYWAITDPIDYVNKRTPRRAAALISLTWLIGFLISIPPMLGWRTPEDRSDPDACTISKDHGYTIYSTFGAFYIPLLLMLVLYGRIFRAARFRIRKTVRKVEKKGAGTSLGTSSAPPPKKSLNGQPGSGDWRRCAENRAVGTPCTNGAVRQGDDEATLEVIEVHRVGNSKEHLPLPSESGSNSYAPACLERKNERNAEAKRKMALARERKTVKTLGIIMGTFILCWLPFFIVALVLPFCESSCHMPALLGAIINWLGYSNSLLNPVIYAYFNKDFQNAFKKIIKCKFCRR
# Procedure: (§1) Compounds of this invention were also examined for their in vivo effects on brain 5-HIAA and serum corticosterone levels. Male Sprague-Dawley rats weighting 150-200 g were administered subcutaneously or orally with aqueous solutions of the test compound. One hour after treatment, the rats were decapitated and trunk blood collected. The blood was allowed to clot and then was centrifuged to separate the serum. The concentration of corticosterone in the serum was determined by the spectrofluorometric method of Solem, J. H.; Brinck-Johnsen, T., Scand. J. Clin. Invest. [Suppl. 80], 17, 1 (1965). The whole brains from the decapitated rats were quickly removed, frozen on dry ice, and stored at -15° C. 5-HIAA concentrations were measured by liquid chromatography with electrochemical detection as described by Fuller, R. W.; Snoddy, H. D.; Perry, K. W., Life Sci. 40, 1921 (1987).
# (§2) The results provided in columns 3-5 are indicative of 5-HT1A agonist activity.
# 5-HT1A receptors [2] = biological target: T1, 5-HT1A receptors; assay: in vivo elevation of serum corticosterone levels (5-HT1A agonist activity); conditions: sc, one hour after treatment
# Procedure: as §1, §2
# 5-HT1A receptors [3] = biological target: T1, 5-HT1A receptors; assay: in vitro binding: inhibition of 3H-8-OH-DPAT binding to synaptosomal membranes from rat cerebral cortex; conditions: 3H-8-OH-DPAT 2 nM, 37° C., 10 min, pH 7.4
# From the text: Sites specifically labeled by tritiated 8-hydroxy-2-dipropylamino-1,2,3,4-tetrahydronaphthalene (^3 H-8-OH-DPAT) have been identified as 5-HT1A receptors. This general procedure is set forth in Wong et al., J. Neural Transm. 71:207-218 (1988).
# Male Sprague-Dawley rats (110-150 g) from Harlan Industries (Cumberland, Ind.) were fed a Purina Chow ad libitum for at least 3 days before being used in the studies. Rats were killed by decapitation. The brains were rapidly removed, and the cerebral cortices were dissected out at 4° C.
# Brain tissues were homogenized in 0.32M sucrose. After centrifugation at 1000×g for 10 min and then at 17000×g for 20 min, a crude synaptosomal fraction was sedimented. The pellet was suspended in 100 vol of 50 mM Tris-HCl, pH 7.4, incubated at 37° C. for 10 min, and centrifuged at 50000×g for 10 min. The process was repeated and the final pellet was suspended in ice-chilled 50 mM Tris-HCl, pH 7.4.
# Binding of ^3 H-8-OH-DPAT was performed according to the previously described method [Wong et al., J. Neural Transm. 64:251-269 (1985)]. Briefly, synaptosomal membranes isolated from cerebral cortex were incubated at 37° C. for 10 min. in 2 ml of 50 mM Tris-HCl, pH 7.4; 10 mM pargyline; 0.6 mM ascorbic acid; 5 mM CaCl2; 2 nM ^3 H-8-OH-DPAT and 0.1 to 1000 nm of the compound of interest. Binding was terminated by filtering samples under reduced pressure through glass fiber (GFB) filters. The filters were washed twice with 5 ml of ice cold buffer and placed in scintillation vials with 10 ml of PCS (Amersham/Searle) scintillation fluid. Radioactivity was measured with a liquid scintillation spectrometer. Unlabeled 8-OH-DPAT at 10 μM was also included in separate samples to establish non-specific binding. Specific binding of ^3 H-8-OH-DPAT is defined as the difference of radioactivity bound in the absence and in the presence of 10 μM unlabeled 8-OH-DPAT.
# as §2
Compound,5-HIAA MED (minimum effective dose lowering brain 5-HIAA levels) (5-HT1A receptors [1]; sc),Corticosterone MED (minimum effective dose elevating serum corticosterone levels) (5-HT1A receptors [2]),IC50 (5-HT1A receptors [3]),5-HIAA MED (minimum effective dose lowering brain 5-HIAA levels) (5-HT1A receptors [1]; po)
"CCCN(CCC)C1CCc2cccc(-c3ccn(C)n3)c2C1 (stereo not shown) [5 (3-yl), 2-Di-n-propylamino-8-(1-methylpyrazol-3-yl)-1,2,3,4-tetrahydronaphthalene]",> 1.0 mg/kg,1.0 mg/kg,5 nM,–
"CCCN(CCC)C1CCc2cccc(-c3ccnn3C)c2C1 (stereo not shown) [5 (5-yl), 2-Di-n-propylamino-8-(1-methylpyrazol-5-yl)-1,2,3,4-tetrahydronaphthalene]",–,–,7.2 nM,–
"CCCN(CCC)C1CCc2cccc(-c3noc(-c4ccccc4)n3)c2C1 (stereo not shown) [Example 2, 2-Di-n-propylamine-8-(5-phenyl-1,2,4-oxadiazol-3-yl)-1,2,3,4-tetrahydronaphthalene]",–,–,36 nM,–
"CCCN(CCC)C1CCc2cccc(-c3cc(O)[nH]n3)c2C1 (stereo not shown) [Example 6, 2-Di-n-propylamino-8-(5-hydroxypyrazol-3-yl)-1,2,3,4-tetrahydronaphthalene]",–,–,62 nM,–
"CCCN(CCC)C1CCc2cccc(-c3ccno3)c2C1 (stereo not shown) [Example 8, 2-Di-n-propylamino-8-(isoxazol-5-yl)-1,2,3,4-tetrahydronaphthalene]",0.1 mg/kg,0.3 mg/kg,–,3 mg/kg
"CCCN(CCC)C1CCc2cccc(-c3nccs3)c2C1 (stereo not shown) [Example 9, 2-Di-n-propylamino-8-(thiazol-2-yl)-1,2,3,4-tetrahydronaphthalene]",> 1.0 mg/kg,> 1.0 mg/kg,12 nM,–
"CCCN(CCC)C1CCc2cccc(-c3csc(N)n3)c2C1 (stereo not shown) [Example 10, 2-Di-n-propylamino-8-(2-aminothiazol-4-yl)-1,2,3,4-tetrahydronaphthalene]",–,–,19 nM,–
"CCCN(CCC)C1CCc2cccc(-c3cscn3)c2C1 (stereo not shown) [Example 11, 2-Di-n-propylamino-8-(thiazol-4-yl)-1,2,3,4-tetrahydronaphthalene]",> 1.0 mg/kg,> 1.0 mg/kg,4.9 nM,–
"CCCN(CCC)C1CCc2cccc(-c3ccc4ccccc4n3)c2C1 (stereo not shown) [Example 12, 2-Di-n-propylamino-8-(quinol-2-yl)-1,2,3,4-tetrahydronaphthalene]",–,–,87 nM,–
"CCCN(CCC)C1CCc2cccc(-c3cnc4ccccc4c3)c2C1 (stereo not shown) [Example 13, 2-Di-n-propylamino-8-(quinol-3-yl)-1,2,3,4-tetrahydronaphthalene]",–,–,16 nM,–
"CCCN(CCC)C1CCc2cccc(-c3cccnc3)c2C1 (stereo not shown) [Example 14, 2-Di-n-propylamino-8-(pyrid-3-yl)-1,2,3,4-tetrahydronaphthalene]",> 1.0 mg/kg,> 1.0 mg/kg,7.2 nM,–
"CCCN(CCC)C1CCc2cccc(-c3ccccn3)c2C1 (stereo not shown) [Example 15, 2 -Di-n-propylamino-8-(pyrid-2-yl)-1,2,3,4-tetrahydronaphthalene]",–,–,33 nM,–
"CCCN(CCC)C1CCc2cccc(-c3ccncc3)c2C1 (stereo not shown) [Example 16, 2-Di-n-propylamino-8-(pyrid-4-yl)-1,2,3,4-tetrahydronaphthalene]",> 1.0 mg/kg,> 1.0 mg/kg,9.8 nM,–
"CCCN(CCC)C1CCc2cccc(-c3noc4ccccc34)c2C1 (stereo not shown) [Example 17, 2-Di-n-propylamino-8-(indoxazin-3-yl)-1,2,3,4-tetrahydronaphthalene]",> 1.0 mg/kg,> 1.0 mg/kg,5 nM,–
"CCCN(CCC)C1CCc2cccc(-c3cc(Br)no3)c2C1 (stereo not shown) [Example 20, 2-Di-n-propylamino-8-(3-bromoisoxazol-5-yl)-1,2,3,4-tetrahydronaphthalene]",> 1.0 mg/kg,> 1.0 mg/kg,–,–
"CCCN(CCC)C1CCc2cccc(-c3oncc3C)c2C1 (stereo not shown) [Example 21, 2-Di-n-propylamino-8-(4-methylisoxazol-5-yl)-1,2,3,4-tetrahydronaphthalene]",0.3 mg/kg,1.0 mg/kg,–,> 10 mg/kg
"CCCN(CCC)C1CCc2cccc(-c3cc(C)no3)c2C1 (stereo not shown) [Example 23, 2-Di-n-propylamino-8-(3-methylisoxazol-5-yl)-1,2,3,4-tetrahydronaphthalene]",1.0 mg/kg,> 1.0 mg/kg,–,–
CCCN(CCC)C1CCc2cccc(-c3ccon3)c2C1 (stereo not shown) [Example 25],0.3 mg/kg,0.3 mg/kg,1.4 nM,10 mg/kg
"CCCN(CCC)C1CCc2cccc(-c3nocc3C)c2C1 (stereo not shown) [Example 26, 2-Di-n-propylamino-8-(4-methylisoxazol-3-yl)-1,2,3,4-tetrahydronaphthalene]",1.0 mg/kg,> 1.0 mg/kg,6.4 nM,–
"CCCN(CCC)C1CCc2cccc(-c3cc(C)on3)c2C1 (stereo not shown) [Example 28, 2-Di-n-propylamino-8-(5-methylisoxazol-3-yl)-1,2,3,4-tetrahydronaphthalene]",> 1.0 mg/kg,> 1.0 mg/kg,3.8 nM,–
"CCCN(CCC)C1CCc2cccc(-c3cc(SC)no3)c2C1 (stereo not shown) [Example 30, 2-Di-n-propylamino-8-(3-methylthioisoxazol-5-yl)-1,2,3,4-tetrahydronaphthalene]",> 1.0 mg/kg,> 1.0 mg/kg,–,–
"CCCN(CCC)C1CCc2cccc(-c3oncc3OC)c2C1 (stereo not shown) [Example 31, 2-Di-n-propylamino-8-(4-methoxyisoxazol-5-yl)-1,2,3,4-tetrahydronaphthalene]",1.0 mg/kg,> 1.0 mg/kg,–,–
"CCCN(CCC)C1CCc2cccc(-c3ccnc(N)n3)c2C1 (stereo not shown) [Example 32, 2-Di-n-propylamino-8-(2-aminopyrimidin-4-yl)-1,2,3,4-tetrahydronaphthalene]",–,–,67 nM,–
"CCCN(CCC)C1CCc2cccc(-c3nc(-c4ccccc4)no3)c2C1 (stereo not shown) [Example 34, 2-Di-n-propylamino-8-(3-phenyl-1,2,4-oxadiazol-5-yl)-1,2,3,4-tetrahydronaphthalene]",–,–,11 nM,–
"CCCN(CCC)C1CCc2cccc(-c3nc(C)no3)c2C1 (stereo not shown) [Example 35, 2-Di-n-propylamino-8-(3-methyl-1,2,4-oxidiazol-5-yl)-1,2,3,4-tetrahydronaphthalene]",–,–,16 nM,–
